Tested on: Human epidermal melanocytes from dark-pigmented skin
Assay: Melanin content in human epidermal melanocytes after 8 days of incubation (absorbance at 405 nm)
Assay type: cell-based
Conditions: for % Pigmentation (percent change of melanin absorbance relative to vehicle control): 8 days of incubation; for Effect on pigmentation, in words: at the concentrations of Table 1
Description: The Compound of Formula (II) was examined for its ability to reduce pigmentation in vitro in human melanocytes. Human epidermal melanocytes from dark-pigmented skin were seeded in 6-well dishes and grown using commercially available Medium 254, a sterile, liquid medium prepared with 200 μM calcium chloride for the culture of human epidermal melanocytes, supplemented with 1% Penicillin/Streptomycin and 1% Human Melanocyte Growth Supplement. Corresponding controls were maintained without histamine, Diphenylhydramine HCl and Compound II. Four replicates were tested for each combination. After 8 days of incubation, melanin was collected and processed by washing the wells with 1× phosphate-buffered saline (PBS), followed by addition of 200 μL of 2M NaOH to three of the four replicates, which are then scraped, pooled and boiled at 80° C. for an hour. Melanin absorption was then measured at 405 nm using a spectrophotometer.
A larger (positive or negative) percent change indicates a larger increase or reduction in melanin.

Row | Compound | % Pigmentation (percent change of melanin absorbance relative to vehicle control) (0.0001%) | % Pigmentation (percent change of melanin absorbance relative to vehicle control) (0.001%) | Effect on pigmentation, in words | % Pigmentation (percent change of melanin absorbance relative to vehicle control) (5 μM)
1 | NC(=O)COc1ccc(C(=O)NCc2ccc(CN3CCCCC3)cc2)cc1 [Compound (II)] | −28.30% | −75.25% | effective to reduce pigmentation | –
2 | NCCc1c[nH]cn1 [Histamine, reference compound] | – | – | significant increase in pigmentation | 58.75%

From patent US20160263005A1, “TOPICAL COMPOSITIONS AND METHODS FOR SKIN LIGHTENING” (AVON PRODUCTS, INC., priority 2014, published 2016)
